Assay: Pooled population PK analysis of dC and dT (five studies: healthy volunteers, renal impairment, TK2d participants)
Conditions: human, in vivo
Description: A phase 2 study was conducted as an open-label continuation of treatment with MT1621 in participants with TK2designed to evaluate the safety, tolerability, and PK of MT1621 (fixed dose combination of dC and dT supplied in a single packet). The study enrolled forty-seven (47) participants. After enrollment, participants transitioned from their current chemical grade 2′-deoxycytidine monophosphate/2′-deoxythymidine monophosphate (dCMP/dTMP) to deoxycytidine and deoxythymidine, or continued the use of deoxycytidine and deoxythymidine. Upon enrollment, participants who were on a stable maintenance dose of 400 mg/kg/day were treated with the same dose of deoxycytidine and deoxythymidine three-times daily (TID). Study participants who were on a total dose <400 mg/kg/day were transitioned to either 260 mg/kg/day (130 mg/kg/day of deoxycytidine and 130 mg/kg/day of deoxythymidine) TID, 520 mg/kg/day (260 mg/kg/day of deoxycytidine and 260 mg/kg/day of deoxythymidine) TID, or 800 mg/kg/day (400 mg/kg/day of deoxycytidine and 400 mg/kg/day of deoxythymidine) TID, depending on which was closest to the participants' previous dose.
The early protocol for deoxycytidine and deoxythymidine administration was for the participants to take the drug product without regard to food. […] Later in the program, when an unexpected effect of food on PK was noted, the protocol was amended to instruct the participants to take the drug product with food. By then, planned PK samples had been taken in a majority of the participants. A total of 3 blood samples were collected from each individual following study Day 1 to measure dC plasma concentrations. Sparse PK blood sampling and PD endpoint collection was conducted according to the following schedule: at Month 1 sampled 0.5, 1, 2, or 3 hours post-dose; and at Month 3 sampled 8, 10, 12, or 14 hours post-dose. During sampling, it was noted whether food was consumed from 1 hour pre-dose to 2 hours post-dose. And, the lower limit of quantification (LLOQ) was 0.5 ng/mL for both dC and dT.
For the calculation of the PK parameters, raw (unadjusted) plasma dC and dT concentrations below the limit of quantitation (BLQ) were set to 1% the limit of quantitation (LOQ) of the assay. […] Since all participants had measurable pre-dose concentrations, Kel and associated PK parameters were not calculated for unadjusted data.
Analysis of the PK data pooled from five (5) studies (including those described in Examples 1 and 2) comprising three (3) Phase 1 studies in healthy volunteers (HV) and two (2) open-label Phase 2 studies that included both adult and pediatric study participants with TK2d. A total of 119 study participants were included, which consisted of 44 healthy study participants, 16 study participants with renal impairment (moderate or severe), and 59 participants with TK2d that included participants aged from 0.9 years to 75.6 year of age.
Pooled population PK analysis confirmed that the fed state was a statistically significant covariate of the PK of dC including the TK2 deficient participants. Table 6 reflects analysis of all dC PK data including those for TK2 deficient participants. […] This is the pertinent value to estimate food effect on dC exposures. […] The decrease in the rate of dC absorption with food (parameter Ka in Table 6) is believed to be due to slower gastric/intestinal motility in the fed state. It is likely that the effect of food on dT concentration in participants with TK2 deficiency was masked by the high variability and limited PK sampling.

## Nc1ccn([C@H]2C[C@H](O)[C@@H](CO)O2)c(=O)n1 [dC, β-D-2′-deoxycytidine]
  CL/F, apparent clearance: Bootstrap Median [2.5th-97.5th percentile]: 392000 (318000, 492000) L/h
  CL/F, apparent clearance: NONMEM Estimate (% RSE): 392000 (11.0%) L/h
  IIV on BSL: Bootstrap Median [2.5th-97.5th percentile]: 26.9% (19.4%, 35.3%)
  IIV on BSL: NONMEM Estimate (% RSE): 27.3% (15.0%) CV %
  IIV on CL/F: Bootstrap Median [2.5th-97.5th percentile]: 60.3% (36.2%, 82.3%)
  IIV on CL/F: NONMEM Estimate (% RSE): 61.6% (18.0%) CV%
  IIV on F: Bootstrap Median [2.5th-97.5th percentile]: 73.3% (37.8%, 102%)
  IIV on F: NONMEM Estimate (% RSE): 75.1% (19.8%) CV %
  IIV on Ka: Bootstrap Median [2.5th-97.5th percentile]: 62.6% (36.1%, 81.8%)
  IIV on Ka: NONMEM Estimate (% RSE): 65.9% (13.6%) CV %
  IIV on V/F: Bootstrap Median [2.5th-97.5th percentile]: 77.9% (39.3%, 107%)
  IIV on V/F: NONMEM Estimate (% RSE): 77.3% (18.0%) CV %
  IOV on F: Bootstrap Median [2.5th-97.5th percentile]: 31.4% (26.3%, 37.9%)
  IOV on F: NONMEM Estimate (% RSE): 31.5% (8.01%) CV %
  Ka, absorption rate constant: Bootstrap Median [2.5th-97.5th percentile]: 0.465 (0.361, 0.638) h^−1
  Ka, absorption rate constant: NONMEM Estimate (% RSE): 0.466 (11.5%) h^−1
  Proportional RUV: Bootstrap Median [2.5th-97.5th percentile]: 17.4% (16.1%, 18.8%)
  Proportional RUV: NONMEM Estimate (% RSE): 17.5% (3.76%)
  V/F, apparent volume of distribution: NONMEM Estimate (% RSE): 284000 (19.9%) L
  Vd/F: 278000 L
  dC BSL, dC endogenous baseline level: Bootstrap Median [2.5th-97.5th percentile]: 3.45 (3.21, 3.65) ng/mL
  dC BSL, dC endogenous baseline level: NONMEM Estimate (% RSE): 3.45 (3.29%) ng/mL
  decrease of absorption rate constant (Ka) with food intake: ~44%
  difference in F between HV and TK2 deficient participants: No difference in F was detected
  endogenous baseline across studies and populations: the same across studies and populations

## Cc1cn([C@H]2C[C@H](O)[C@@H](CO)O2)c(=O)[nH]c1=O [dT, β-D-2′-deoxythymidine]
  F lower in healthy volunteers compared to TK2 deficient participants: 70-90%
  bioavailability: ~83%
  decrease of F in Latino/Hispanic population: ~50%
  decrease of absorption rate constant from first input compartment (K12) with high-fat content meal: ~80%
  decrease of lag time from second input compartment (ALAG3) with high-fat content meal: ~80%
  dose proportionality of exposures following single ascending doses: more than dose proportional
  endogenous baseline across studies: 0.220 to 1.14 ng/mL
  increase of F with a high-fat content meal: ~120%
